We go through two molecules from patent US9452225B2, “GLP-1 prodrugs” (Novo Nordisk A/S, priority 2012, dated 2016).

Numbered stars: 1 amine (or outer) side, 2 acyl side, 3 side chain; on linkers, the order of the positions; unused ones are H or OH. Side chains are listed from the residue outwards. Peptide text beside a SMILES is read from it. * marks the point of attachment. Decanoyl(10-(4-HOOC-PhO)) = O=C(O)c1ccc(OCCCCCCCCCC(=O)*)cc1; Lactoyl(3-(imidazol-4-yl)) = O=C([C@@H](O)Cc1c[nH]cn1)*; γGlu = O=C(O)[C@H](CCC(=O)[*:2])N[*:1]; AEEA = NCCOCCOCC(=O)O

Data set [1] in a line: Prodrug half-life in vitro, plasma method (minipig heparin plasma). Format: in vitro ADME. The settings on record: minipig heparin plasma 800 μL + 200 μL 200 mM phosphate pH 7.4, 37° C.; UPLC_A, or UPLC_B for compounds marked *; read-out: T½ in plasma (converted). The procedure: (§1) The purpose of this example is to test the in vitro half-lives (T½) of the GLP-1 prodrugs of the invention, in comparison to conceptually different prodrugs. In what follows two in vitro methods are described, viz. a method conducted in buffer, and a method conducted in plasma.
(§2) The half life of the prodrug (T½) was calculated from the slope of a linear fit to the curve of ln(% prodrug (Y)) as a function of time (t), as follows: Y=÷αt+k Math. 1 T½=ln(2)/α Math. 2 Plasma Method Buffer: 200 mM Phosphate, pH 7.4 at 37° C.
NaH2PO4.2H2O (15.61 g, 100 mmol) was dissolved in milliQ water (approximately 450 mL) and adjusted to pH=7.44 at approximately 20° C. with concentrated NaOH (aq) and 1 M NaOH (aq). Water was added to 500.00 mL.
Serum: Minipig Serum, Heparin-Plasma
Fresh blood was tapped from minipig into 9 mL LH lithium heparin Vacuette tubes from Greiner bio-one (catalogue number 455084). After cooling on ice it was centrifuged (10 min, 4° C., 3000 rpm/1942G) and the supernatant isolated and kept at −18° C. before use.
100 nmol of the compound to be tested was dissolved in 200 μL buffer, added to 800 μL plasma (centrifuged), and incubated at 37° C. Samples (50 μL) were drawn at appropriate intervals into 150 μL absolute EtOH. After a short stirring the sample was centrifuged and the supernatant transferred to the UPLC vial (10 μL injection).
The % parent drug compared to prodrug formed as a function of time was evaluated by UPLC, and the half-life calculated, both in the same way as described above under the Buffer method.

Data set [2] is described as follows: Prodrug half-life in vitro, buffer method. Format: physicochemical. To be noted: 25 mM phosphate buffer pH 7.4, 37° C., 1.0 mg/mL; UPLC_A, or UPLC_B for compounds marked *; read-out: T½ in buffer (converted). The procedure: as §1
Buffer: 25 mM Phosphate (Ionic strength: 154 mM, pH 7.4 at 37° C.)
NaH2PO4.2H2O (1.95 g, 12.5 mmol) and NaCl (2.61 g, 44.7 mmol) were dissolved in millipore water (approximately 450 mL) and adjusted to pH=7.44 at approximately 20° C. with concentrated NaOH and 1 M NaOH. Water was added to 500.00 mL.
The compound to be tested was dissolved in buffer to a concentration of 1.0 mg/mL and incubated at 37° C. Samples were taken at adequate intervals and the % parent drug compared to prodrug formed as function of time was evaluated by the UPLC method as referred to in Table 1 by comparing the areas under the curves for the two corresponding peaks. These UPLC methods are described in the general experimental section above (UPLC_A, and UPLC_B).
as §2
The resulting half-lives are set out in Table 1 below. For comparison, the T½ in buffer of native GLP-1(7-37) (His7 variant of SEQ ID NO: 1) was 13 minutes (0.2 hours).

A further data set has as its target T1, human GLP-1 receptor (Homo sapiens, UniProt P43220).
T1 construct: expressed in transfected cells; host or cells: BHK cells, clone FCW467-12A (parent line BHKTS13), membranes
The experiment in a line: In vitro potency, AlphaScreen cAMP assay on membranes. The data set is classed as biochemical. To be noted: cAMP formation, membranes of BHK467-12A cells. How it is done:
The purpose of this example is to test the activity, or potency, in vitro of, for example, the GLP-1 parent drugs of the prodrugs of the invention.
Purified plasma membranes from a stable transfected cell line, BHK467-12A (tk-ts13), expressing the human GLP-1 receptor were stimulated with the GLP-1 drug in question, and the potency of cAMP production was measured using the AlphaScreen™ cAMP Assay Kit from Perkin Elmer Life Sciences. The basic principle of The AlphaScreen Assay is a competition between endogenous cAMP and exogenously added biotin-cAMP. The capture of cAMP is achieved by using a specific antibody conjugated to acceptor beads.
A stable transfected cell line and a high expressing clone were selected for screening. The cells were grown at 5% CO2 in DMEM, 10% FCS, 1% Pen/Strep (Penicillin/Streptomycin) and preferably 0.5 (alternatively 1.0 mg/ml) of the selection marker G418.
Cells at approximate 80% confluence were washed twice with PBS and harvested with Versene (aqueous solution of the tetrasodium salt of ethylenediaminetetraacetic acid), centrifuged 5 min at 1000 rpm and the supernatant removed. The additional steps were all made on ice. The cell pellet was homogenised by the Ultrathurax for 20-30 s in 10 ml of Buffer 1 (20 mM Na-HEPES, 10 mM EDTA, pH=7.4), centrifuged 15 min at 20,000 rpm and the pellet resuspended in 10 ml of Buffer 2 (20 mM Na-HEPES, 0.1 mM EDTA, pH=7.4). The suspension was homogenised for 20-30 s and centrifuged 15 min at 20,000 rpm. Suspension in Buffer 2, homogenisation and centrifugation was repeated once and the membranes were resuspended in Buffer 2. The protein concentration was determined and the membranes stored at −80° C. until use.
The assay was performed in flat-bottom 96-well plates (Costar cat. no: 3693). The final volume per well was 50 μl.
AlphaScreen cAMP Assay Kit from Perkin Elmer Life Sciences (cat. No: 6760625M); containing Anti-cAMP Acceptor beads (10 U/μl), Streptavidin Donor beads (10 U/μl) and Biotinylated-cAMP (133 U/μl). […]

T1 sequence (P43220 24-463): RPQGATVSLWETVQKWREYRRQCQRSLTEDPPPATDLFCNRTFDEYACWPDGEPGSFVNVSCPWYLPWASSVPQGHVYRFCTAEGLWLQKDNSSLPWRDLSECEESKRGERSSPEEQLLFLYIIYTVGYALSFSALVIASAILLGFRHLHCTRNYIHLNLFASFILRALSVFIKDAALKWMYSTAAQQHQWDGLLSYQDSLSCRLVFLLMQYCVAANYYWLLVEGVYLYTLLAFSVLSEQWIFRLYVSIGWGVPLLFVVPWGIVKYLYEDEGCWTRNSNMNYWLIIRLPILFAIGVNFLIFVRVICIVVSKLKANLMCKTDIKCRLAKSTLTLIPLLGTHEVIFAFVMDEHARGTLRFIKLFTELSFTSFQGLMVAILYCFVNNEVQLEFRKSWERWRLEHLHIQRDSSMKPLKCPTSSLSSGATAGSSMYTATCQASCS

Consider `CC[C@H](C)[C@H](NC)C(=O)N[C@H](C(=O)O[C@@H](Cc1c[nH]cn1)C(=O)N[C@@H](C)C(=O)N[C@@H](CCC(=O)O)C(=O)NCC(=O)N[C@H](C(=O)N[C@@H](Cc1ccccc1)C(=O)N[C@H](C(=O)N[C@@H](CO)C(=O)N[C@@H](CC(=O)O)C(=O)N[C@H](C(=O)N[C@@H](CO)C(=O)N[C@@H](CCCCNC(=O)COCCOCCNC(=O)COCCOCCNC(=O)CC[C@H](NC(=O)CCCCCCCCCOc1ccc(C(=O)O)cc1)C(=O)O)C(=O)N[C@@H](Cc1ccc(O)cc1)C(=O)N[C@@H](CC(C)C)C(=O)N[C@@H](CCC(=O)O)C(=O)N[C@@H](CCC(=O)O)C(=O)N[C@@H](CCC(N)=O)C(=O)N[C@@H](C)C(=O)N[C@@H](C)C(=O)N[C@@H](CCCCNC(=O)COCCOCCNC(=O)COCCOCCNC(=O)CC[C@H](NC(=O)CCCCCCCCCOc1ccc(C(=O)O)cc1)C(=O)O)C(=O)N[C@@H](CCC(=O)O)C(=O)N[C@@H](Cc1ccccc1)C(=O)N[C@H](C(=O)N[C@@H](C)C(=O)N[C@@H](Cc1c[nH]c2ccccc12)C(=O)N[C@@H](CC(C)C)C(=O)N[C@H](C(=O)N[C@@H](CCC(N)=O)C(=O)NCC(=O)N[C@@H](CCCNC(=N)N)C(=O)NCC(=O)O)C(C)C)[C@@H](C)CC)C(C)C)[C@@H](C)O)[C@@H](C)O)C(C)C` [Example 5], for which the half-life in data set [1] was 32.2 h; in data set [2] it was 37.9 h.

The EC50 is the concentration that produces a half-maximal response. Read a low EC50 as higher potency in that assay. Take `CC[C@H](C)[C@H](NC(=O)[C@H](Cc1ccccc1)NC(=O)[C@H](CCC(=O)O)NC(=O)[C@H](CCCCNC(=O)COCCOCCNC(=O)COCCOCCNC(=O)CC[C@H](NC(=O)CCCCCCCCCOc1ccc(C(=O)O)cc1)C(=O)O)NC(=O)[C@H](C)NC(=O)[C@H](C)NC(=O)[C@H](CCC(N)=O)NC(=O)[C@H](CCC(=O)O)NC(=O)[C@H](CCC(=O)O)NC(=O)[C@H](CC(C)C)NC(=O)[C@H](Cc1ccc(O)cc1)NC(=O)[C@H](CCCCNC(=O)COCCOCCNC(=O)COCCOCCNC(=O)CC[C@H](NC(=O)CCCCCCCCCOc1ccc(C(=O)O)cc1)C(=O)O)NC(=O)[C@H](CO)NC(=O)[C@@H](NC(=O)[C@H](CC(=O)O)NC(=O)[C@H](CO)NC(=O)[C@@H](NC(=O)[C@H](Cc1ccccc1)NC(=O)[C@@H](NC(=O)CNC(=O)[C@H](CCC(=O)O)NC(=O)[C@H](C)NC(=O)[C@@H](O)Cc1c[nH]cn1)[C@@H](C)O)[C@@H](C)O)C(C)C)C(=O)N[C@@H](C)C(=O)N[C@@H](Cc1c[nH]c2ccccc12)C(=O)N[C@@H](CC(C)C)C(=O)N[C@H](C(=O)N[C@@H](CCC(N)=O)C(=O)NCC(=O)N[C@@H](CCCNC(=N)N)C(=O)NCC(=O)O)C(C)C` [Example B2.3] ({Lactoyl(3-(imidazol-4-yl))}-AEGTFTSDVSK([AEEA-AEEA-γGlu-Decanoyl(10-(4-HOOC-PhO))])YLEEQAAK([AEEA-AEEA-γGlu-Decanoyl(10-(4-HOOC-PhO))])EFIAWLVQGRG-OH; C-terminus assumed): at human GLP-1 receptor, the concentration giving a half-maximal response (EC50) is 1300 pM.
